Legend:
[1] = tested on: plasma histamine; test: In vivo histamine release assay, passive systemic IgE-mediated anaphylaxis model
Protocol: C3H 6-7 week male and female WT mice were purchased from Jackson Lab (Cambridge, Mass., USA), mice were fed a regular diet and with drinking water ad libitum. Experiments were approved by The Hebrew University Ethical Committee for Animal Experimentation.
WT C3H mice were sensitized with 3 μg murine IgE anti-DNP mAb SPE-7 by means of intravenous injection in the tail vein. Twenty-four hours later, mice were treated with 40 mg/kg of static dissolved in corn oil or corn oil alone for 2.5 hours, then mice were challenged with i.v. injection of DNP-BSA (250 μg per mouse). 100 μl of blood was collected immediately and added to an equal volume of pre-cold Alsever's Solution. Blood was centrifuged 2000 g for […] and plasma supernatant was collected. Plasma histamine levels were determined by using competitive ELISA (IBL International Gmbh, Hamburg, Germany).
STAT3's role in vivo was investigated by evaluating the response to allergic stimulation in Stattic-treated mice. The passive systemic IgE-mediated anaphylaxis model was used. Mice were injected (i.v.) with IgE anti-DNP. Twenty four hours later they were injected (i.p.) with Stattic (80 mg/kg) or corn oil which was used as control. Three and a half hours later the mice were challenged with DNP-BSA for 1.5 minutes. Plasma was collected, and histamine levels were measured by competitive ELISA. Histamine secretion in Stattic-treated mice was 43% less than that in control mice (FIG. 17, p<0.05).
Mitocur-1/3 effectiveness in vivo was investigated by evaluating the response to allergic stimulation in Mitocur-1/3-treated mice. The passive systemic IgE-mediated anaphylaxis model was used. Mice were injected (i.v.) with IgE anti-DNP. Twenty four hours later they were injected (i.p.) with Mitocur-1 (80 mg/kg) and Mitocur-3 (40 mg/kg). Corn oil was used as control. Three and a half hours later the mice were challenged with DNP-BSA for 1.5 minutes. Plasma was collected, and histamine levels were measured by competitive ELISA. Histamine secretion in Mitocur-1-treated mice was 35% less than that in control mice (FIG. 22A, p<0.05).

[2] = tested on: RBL cells; test: β-Hexosaminidase release assay (degranulation) in RBL cells; assay type: cell-based, rat; conditions: RBL cells
Protocol: RBL-2H3 cells were maintained in RPMI 1640 medium as previously described1. Bone marrow was isolated from 5-6 week-old mice, and BMMC were cultured in RPMI medium supplemented with 20 ng/ml interleukin-3 (IL-3) and 20 ng/ml SCF as previously described2, 3. Cells were generally grown for a minimum of 4 weeks and used when >90% of the population expressed FcεRI. BMMC and RBL cells were sensitized first with anti-DNP IgE monoclonal antibody (SPE-7; Sigma-Aldrich Corp.) and then challenged with DNP-BSA (Sigma-Aldrich Corp.). IgE antibody was centrifuged (18,000 g, 5 min) before use to remove aggregates. […] For glycolysis elimination cells were maintained in glucose-free RPMI supplemented with 10% dialyzed fetal calf serum and 5 mM galactose.
1×104 RBL or 3×104 BMMC were immunologically activated as described above. After IgE incubation, the cells were washed three times with 5 mL of degranulation buffer (NaCl 130 mM, KCl 5 mM, Glucose 5.6 mM, MgCl2 1 mM, CaCl2 1.2 mM, Hepes pH 7.4 10 mM, BSA 0.1%) and resuspended in 200 μL of the same buffer with DNP-albumin for 30 min. The release of β-hexosaminidase was determined in triplicates in a 96-well plate. Aliquots (20 μL) of supernatants and cell lysates were incubated for 30 minutes with 100 μL of substrate solution (1.3 mg/mL p-nitrophenyl-b-D-2-acetamido-2-deoxyglucopyranozide in 0.1 M citrate [pH 4.51]). The reaction was stopped by the addition of 200 μL of 0.2 M glycine (pH 10.7). The plate OD was read in an enzyme-linked immunosorbent assay (ELISA) reader at a wavelength of 405 nm Percent release values for each experimental condition were calculated3.

`O=[N+]([O-])c1ccc2c(c1)S(=O)(=O)C=C2` [Stattic, 6-Nitrobenzo[b]thiophene 1,1-dioxide, reference compound] was tested, and the “histamine secretion less than in control mice” value ([1]; Stattic 80 mg/kg i.p., 3.5 h before DNP-BSA challenge) was 43%, the “decrease in histamine secretion” value ([1]; mice, Stattic 40 mg/kg, after two and a half hours (data not shown)) was 32.4% and the degranulation ([2]; 5 min incubation with Stattic (data not shown)) was “totally abolished”. The β-hexosaminidase release ([2]; IgE/DNP-BSA, 60 μM Stattic 20 min) was “completely abolished” and the “effect on IgE-Ag mediated β-hexosaminidase release, dependence on concentration” value ([2]; stated concentrations of Stattic (FIG. 6)) was “concentration dependent”.
